Several values for one entry are separate records, joined by “and”; a condition that tells them apart may be missing. Equal entries are not always repeated. Where two headings read alike, the source gives them in different places.
What was measured:
[1] = target: T1, MOR (Mu opioid Receptor) (Homo sapiens, UniProt P35372); test: cAMP agonistic activity assay, MOR stably transfected cell line; format: cell-based; details: for EC50 against μ receptor relative to that of TRV130: ratio of EC50 to TRV130
T1 construct: expressed in transfected cells
Protocol: (§1) 1. Test purpose: to detect the agonistic activity of compound samples utilizing MOR (Mu opioid Receptor), KOR(Kappa opioid receptor), and DOR (Delta Opioid Receptor) stably transfected cell lines and using the established cAMP assay detection platform.
(§2) a. All samples were dissolved with DMSO to a storage concentration of 30 mM.
(§3) b. A sample dilution sequence was prepared on a 384-well LDV plate. The first concentration point is 6 mM, with a 3.162-fold serial dilution and a total of 11 concentration points.
(§4) c. The sample dilution sequence was transferred to an test plate (Corning-3824) using the Echo machine, corresponding to transfer of 50 nL per well.
(§5) d. 50 nL of HPE or ZPE was transferred to the corresponding location of the test plate using the Echo machine.
(§6) 2.2 Test operation of cAMP agonistic activity detection
(§7) a. Assay buffer and stimulation buffer (STB) required for the test were formulated.
(§8) b. 5 μL of STB was firstly added to each well of the test plate (with 50 nL of compound already in the well), and then 5 μL of cell suspension was added thereto.
(§9) c. The test plate was incubated in a constant temperature incubator at 37° C.
(§10) d. A standard concentration curve of cAMP was created. The first concentration point was 2848 nM, with a 4-fold serial dilution and a total of 16 detection concentrations, and each concentration point was in triplicate.
(§11) e. cAMP detection reagent (Cisbio #62AM4PEJ) was added to the sample test plate and cAMP standard concentration test plate. 5 μL of D2 reagent was added first, and then 5 μL of Cryptate reagent was added.
(§12) f. The test plates were read on the Envision after being left for 60 minutes at room temperature.

[2] = tested on: thermal radiation tail-flick pain threshold in rats; test: Rat thermal radiation tail-flick pain threshold test; format: in vivo, SD rats; details: 0.7 mg/kg tail vein injection, Mean ± SEM; for Maximum percentage of analgesia (MPE) 0.5 h: 0.5 h after administration, n = 10; for Maximum percentage of analgesia (MPE) 1 h: 1 h after administration; for Maximum percentage of analgesia (MPE) 2 h: 2 h after administration; for Maximum percentage of analgesia (MPE) 3 h: 3 h after administration
Protocol: 1. Test purpose: to measure the effect of each compound sample on the pain threshold of rats by using the rat thermal radiation tail flick method.
Administered via tail vein injection at an equal dose of 0.7 mg/kg;
The rats (SD rats, SPF grade, with body weight of 220-250g, purchased from Beijing Vital River Laboratory Animal Technology Co., Ltd.) were firstly fixed in a special plastic cylinder, so that their tails were exposed and drooped naturally. Test was performed after the animals were quiet. […] The measured time interval was the tail-flick response latency, which is 3 s to 5 s in normal rats, and those with greater than 5 s or less than 3 s were excluded. Then, measurement was made every 5 min, and the mean of three measurements was taken as the basic nociceptive threshold. If the animal stayed more than 10 s under analgesic effect, the irradiation was stopped and 10 s was used as the upper limit of the tail flick latency to avoid burning the skin by the too-long irradiation. After the rats were given a certain dose of the drug, the pain thresholds of the rats were measured at different times.
After the rats were given a certain dose of the drug, the pain threshold of the rats was measured at 0.5 h, 1 h, 2 h, and 3 h. The maximum percentage of analgesia (% MPE) after administration was calculated, of which the calculation formula was as follows: MPE(%)=(pain threshold after administration−pain threshold before administration)/(10s−pain threshold before administration))×100%

[3] = target: T2, KOR(Kappa opioid receptor) (Homo sapiens, UniProt P41145); test: cAMP agonistic activity assay, KOR stably transfected cell line; format: cell-based
T2 construct: expressed in transfected cells
Protocol: as §1, §2, §3, §4, §5, §6, §7, §8, §9, §10, §11, §12

[4] = tested on: colonic motility (glass bead expulsion) in mice; test: Mouse colonic glass bead expulsion time test; format: in vivo; details: C57BL/6 mice, 1 mg/kg single tail vein injection, n = 10; for Mean Expulsion Time: beads inserted 20 min after administration, limit 120 min, Mean ± S.E.M.; for Expulsion Time Prolonging Rate (ETPR): relative to solvent control
Protocol: 1. Test purpose: to test the effect of the test compound on the expulsion time of colonic glass beads from mice, and to preliminarily investigate its inhibitory effect on colonic motility.
Administered via tail vein injection at an equal dose of 1 mg/kg;
After 6-7 days of adaptive feeding of C57BL/6 mice, the animals fasted with free access to water for 12-16 hours and then randomly divided into 10 groups, 10 mice per group. Each group employed a single administration via tail vein, and the administration volume was 10 mL/kg. The solvent control group was given a vehicle (normal saline) via tail vein. 20 min after the administration, glass beads preheated to 37° C. with a diameter of 2 mm were pushed into the rectum at a distance of 2 cm through the anus. Timing was immediately started and the animals were placed individually in the observation cage to observe the time for the glass beads to be expulsed (the observation time limit was 120 min). If the glass beads had not been expulsed by the end of the observation period, the animals were euthanized and the rectum was dissected to confirm that the glass beads were still in the intestinal tract.
Colonic Expulsion Rate (CER)=number of animals that successfully expulsed glass beads during the observation period/total number of animals in this group×100%;
Expulsion Time Prolonging Rate (ETPR)=(mean expulsion time of test sample group—mean expulsion time of solvent control group)/mean expulsion time of solvent control group×100%;
Percent Maximum Possible Effect (% Maximum Possible Effect, Percent MPE)=(mean expulsion time of test sample group—mean expulsion time of solvent control group)/(120-mean expulsion time of solvent control group)×100%; Calculation and related statistical processing were performed on the test data using Microsoft Office Excel 2007 and GraphPad Prism software. Unless otherwise specified, the data were shown as mean±standard error (Mean±S.E.M.), and the comparison between groups was performed by one-way ANOVA, and the Dunnett's method was used for pairwise comparison test.

[5] = Pharmacokinetic test after single tail vein injection; format: in vivo; details: SD (Sprague-Dawley), rat, plasma, iv; SD rats, single tail vein injection 2 mg/kg, n = 3
Protocol: 1. Test purpose: to investigate the pharmacokinetic parameters of each compound in the Experimental Example after a single tail vein administration.
Administered via tail vein at an equal dose of 2 mg/kg;
Blood was collected from the jugular vein before administration and 5 min, 10 min, 15 min, 20 min, 30 min, 45 min, 1h, 2h, 4h, 6h, 8h, 24 h after administration. 200 μL of whole blood was taken at each time point and was placed in an anticoagulation tube containing EDTA-K2, and centrifuged at 2000g at a low temperature of 4° C. to separate the plasma. The plasma was transferred to a microcentrifuge tube, and stored in a −80° C. refrigerator for later use.
By establishing a reliable LC/MS/MS analysis method, the blood concentration of each sample was detected, and the pharmacokinetic parameters of each compound were calculated.

[6] = target: T3, DOR (Delta Opioid Receptor) (Homo sapiens, UniProt P41143); test: cAMP agonistic activity assay, DOR stably transfected cell line; format: cell-based
T3 construct: expressed in transfected cells
Protocol: as §1, §2, §3, §4, §5, §6, §7, §8, §9, §10, §11, §12

[7] = agonistic effect, cAMP assay, μ opioid receptor, read-out: EC50 μ
[8] = agonistic effect, cAMP assay, κ opioid receptor, read-out: EC50 κ
[9] = agonistic effect, cAMP assay, δ opioid receptor, read-out: EC50 δ
[10] = n = 10, listed as positive compound, 0.7 mg/kg

T2 sequence (P41145 whole entry): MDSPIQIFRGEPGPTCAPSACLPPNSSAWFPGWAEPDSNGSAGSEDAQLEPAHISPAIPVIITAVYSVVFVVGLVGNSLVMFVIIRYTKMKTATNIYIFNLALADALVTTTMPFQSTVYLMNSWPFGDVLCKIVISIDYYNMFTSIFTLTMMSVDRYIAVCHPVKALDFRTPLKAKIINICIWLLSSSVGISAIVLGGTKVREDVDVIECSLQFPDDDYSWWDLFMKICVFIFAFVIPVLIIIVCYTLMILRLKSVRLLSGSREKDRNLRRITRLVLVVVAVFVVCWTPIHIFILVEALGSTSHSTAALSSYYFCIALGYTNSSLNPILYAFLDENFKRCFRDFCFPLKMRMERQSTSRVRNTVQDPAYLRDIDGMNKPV
T3 sequence (P41143 whole entry): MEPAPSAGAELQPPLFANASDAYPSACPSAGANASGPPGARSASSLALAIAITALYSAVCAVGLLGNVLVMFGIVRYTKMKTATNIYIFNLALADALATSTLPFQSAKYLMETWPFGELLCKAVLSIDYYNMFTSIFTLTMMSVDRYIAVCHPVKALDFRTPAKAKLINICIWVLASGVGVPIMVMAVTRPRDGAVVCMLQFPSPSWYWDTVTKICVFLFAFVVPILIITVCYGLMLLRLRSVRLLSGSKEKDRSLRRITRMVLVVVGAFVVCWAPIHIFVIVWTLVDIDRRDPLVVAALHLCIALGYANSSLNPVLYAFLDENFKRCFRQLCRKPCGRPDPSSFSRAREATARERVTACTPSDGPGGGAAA
T1 sequence (P35372 whole entry, species assumed): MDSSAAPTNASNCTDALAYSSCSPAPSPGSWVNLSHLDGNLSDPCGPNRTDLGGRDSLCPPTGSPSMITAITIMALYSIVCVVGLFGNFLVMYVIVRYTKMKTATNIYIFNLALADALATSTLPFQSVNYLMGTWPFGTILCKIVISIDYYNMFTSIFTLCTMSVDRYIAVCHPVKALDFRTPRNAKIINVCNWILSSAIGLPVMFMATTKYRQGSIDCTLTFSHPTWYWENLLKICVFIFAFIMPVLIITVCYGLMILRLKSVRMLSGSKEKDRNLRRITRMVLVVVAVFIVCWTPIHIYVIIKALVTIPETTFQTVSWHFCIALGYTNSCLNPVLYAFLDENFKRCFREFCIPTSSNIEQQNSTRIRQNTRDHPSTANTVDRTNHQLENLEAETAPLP

Compound | EC50 [1] | EC50 against μ receptor relative to that of TRV130 [1] | Maximum percentage of analgesia (MPE) 0.5 h [2] | Maximum percentage of analgesia (MPE) 1 h ([2]; n = 10, 0.7 mg/kg) | Maximum percentage of analgesia (MPE) 2 h ([2]; n = 10, 0.7 mg/kg) | Maximum percentage of analgesia (MPE) 3 h ([2]; n = 10, 0.7 mg/kg) | EC50 [3] | Mean Expulsion Time [4] | Percent Maximum Possible Effect (Percent MPE) [4] | Expulsion Time Prolonging Rate (ETPR) [4] | AUC(0-t) [5] | Cmax [5] | Tmax [5] | half-life [5] | EC50 [6] | EC50 [1, 7] | EC50 [3, 8] | EC50 [6, 9] | other results
COc1ccc2occ(CNCC[C@@]3(c4ccccn4)CCOC4(CCCC4)C3)c2c1 [Example 1] | 0.00021 µM | about 1/10 | 100.00% | 89.95±7.06% and 89.95% | 86.51±10.06% and 86.51% | 65.91±5.76% and 65.91% | 51.4 µM | 17.40 ± 5.84^※※♦♦ min | 11.55% | 333.92% | 585 ± 25.9 ng·h/mL | 601 ± 32.5 ng/mL | 6.6 ± 3 min | 190.2 ± 1.2 min | 65.3 µM |  |  |  | 
c1ccc([C@]2(CCNCc3coc4ccccc34)CCOC3(CCCC3)C2)nc1 [Example 2] | 0.0029 µM | the same order of magnitude | 100.00% | 82.81±9.77% and 82.81% | 79.23±10.51% and 79.23% | 55.50±6.85% and 55.50% | 39.8 µM | 25.85 ± 5.88^※※♦ min | 18.83% | 544.64% | 379 ± 63.1 ng·h/mL | 309 ± 43 ng/mL | 9 ± 0.6 min | 137 ± 7.8 min | 22.2 µM |  |  |  | EC50 against κ receptor relative to that of TRV130 ([3]; ratio of EC50 to TRV130): about 7 times; EC50 against δ receptor relative to that of TRV130 ([6]; ratio of EC50 to TRV130): about 7 times
c1ccc([C@]2(CCNCc3coc4ccc(O[C@@H]5CCOC5)cc34)CCOC3(CCCC3)C2)nc1 [Example 3] |  | about 1/10 | 100.00% | 86.89±7.34% and 86.89% | 82.95±8.69% and 82.95% | 61.46±8.58% and 61.46% |  | 18.99 ± 6.55^※※♦♦ min | 12.91% | 373.57% | 532 ± 50.6 ng·h/mL | 543 ± 72.8 ng/mL | 9 ± 1.2 min | 177 ± 20.4 min |  | 0.00056 µM | 56.8 µM | 32.5 µM | 
Fc1ccc([C@]2(CCNCc3ccccc3-c3ccncc3)CCOC3(CCCC3)C2)cc1 [Example 4] |  | about 1/10 | 100.00% | 85.79±9.25% and 85.79% | 83.78±11.31% and 83.78% | 60.92±2.45% and 60.92% |  | 19.13 ± 3.93^※※♦♦ min | 13.04% | 377.06% | 563 ± 31.8 ng·h/mL | 552 ± 48.7 ng/mL | 10.8 ± 1.8 min | 194 ± 6.6 min |  | 0.0045 µM | 54.5 µM | 42.7 µM | 
COc1ccsc1CNCC[C@@]1(c2ccccn2)CCOC2(CCCC2)C1 [TRV130, oliceridine, reference compound] |  |  | 100.00% | 88.69% | 70.01% | 49.32% | 5.77 µM | 37.57 ± 4.31^※※ min | 28.93% | 836.91% | 319 ± 30.6 ng·h/mL | 235 ± 22.7 ng/mL | 8.4 ± 6 min | 56.4 ± 1.8 min | 3.14 µM |  |  |  | Maximum percentage of analgesia (MPE) 1 h [2, 10]: 88.69±1.52%; Maximum percentage of analgesia (MPE) 2 h [2, 10]: 70.01±8.01%; Maximum percentage of analgesia (MPE) 3 h [2, 10]: 49.32±7.12%
